The values below come from patent publication US8349880B2, “Bicyclic compounds for the reduction of beta-amyloid production” (Bristol-Myers Squibb Company, priority 2009, dated 2013).

Usually IC50 stands for the concentration that inhibits the measured activity by half.

Where two headings read alike, the source gives them in different places.

This assay concerns Aβ1-42 production. As to the kind of experiment: Cellular assay for inhibition of Aβ1-42 production (H4 APP751 SWE clone 8.20). Format: cell-based. The settings on record: 19 h, H4 APP751 SWE clone 8.20 cells, 19 h incubation. Put shortly:
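Aβ42 level read with antibodies 565, against the Aβ42 neoepitope, and N-terminal 26D6, incubated overnight at 4° C, after exposure of H4 APP751 SWE clone 8.20 cells to compound for 19 h at 37° C. Medium was DMEM plus 0.0125% BSA, 1.5×10^4 cells/well. IC50 values come from curve fitting.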

[1] abbreviates: read-out: Activity Rating (Aβ42 cellular IC50, given as a number).
Setting [2] is: read-out: Activity Rating (based on Aβ42 cellular IC50 values).

On to `COc1cc(Nc2nc3n(n2)CCCC[C@H]3c2cc(F)c(F)c(F)c2)ccc1-n1cnc(Cl)c1` (single isomer, unassigned) [Example 51], for which the IC50 under setting [1] turned out to be 4 nM.
For `COc1cc(Nc2nc3n(n2)CC=CC[C@@H]3c2ccc(F)cc2)ccc1-n1cnc(C)n1` (single isomer, unassigned) [Example 6], the IC50 under setting [2] fell in the range of 10 to 100 nM.
For the compound `COc1cc(Nc2nc3c(s2)CCCC3c2ccccc2)ccc1-n1cnc(C)n1` (stereo not drawn) [Example 67, N-(3-methoxy-4-(3-methyl-1H-1,2,4-triazol-1-yl)phenyl)-4-phenyl-4,5,6,7-tetrahydrobenzo[d]thiazol-2-amine], the IC50 under setting [1] is 19 nM.
As to `CNC1Cc2sc(Nc3ccc(-n4cnc(Cl)c4)c(OC)c3)nc2C(c2ccc(F)cc2)C1` (stereo not drawn) [Example 79, N2-(4-(4-chloro-1H-imidazol-1-yl)-3-methoxyphenyl)-4-(4-fluorophenyl)-N-6-methyl-4,5,6,7-tetrahydrobenzo[d]thiazole-2,6-diamine], the IC50 under setting [2] lay within 10 to 100 nM.
On the same count and under the same terms, the same measure for `COc1cc(Nc2nc3n(n2)CC[C@@](C)(O)C[C@@H]3c2ccc(OC(F)(F)F)cc2)ccc1-n1cnc(Cl)c1` (relative stereo) [Example 153, rel-(7S,9R)-2-(4-(4-chloro-1H-imidazol-1-yl)-3-methoxyphenylamino)-7-methyl-9-(4-(trifluoromethoxy)phenyl)-6,7,8,9-tetrahydro-5H-[1,2,4]triazolo[1,5-a]azepin-7-ol 2,2,2-trifluoroacetate]: below 10 nM; for `COc1cc(Nc2nc3n(n2)CC=CC[C@H]3c2ccc(F)cc2)ccc1-n1cnc(C)n1` (single isomer, unassigned) [Example 5]: 10 to 100 nM.
Still for that read-out and setting: under `COc1cc(Nc2nc3n(n2)CCCCC3c2ccc(F)cc2)ccc1-c1cnnc(C)c1` (stereo not drawn) [Example 47, 9-(4-fluorophenyl)-N-(3-methoxy-4-(6-methylpyridazin-4-yl)phenyl)-6,7,8,9-tetrahydro-5H-[1,2,4]triazolo[1,5-a]azepin-2-amine] stands 10 to 100 nM; under `COc1cc(Nc2nc3n(n2)CCCCC3c2ccccc2)ccc1-n1cnc(Cl)c1` (stereo not drawn) [Example 159, 2,2,2-trifluoroacetate], below 10 nM; under `COc1cc(Nc2nc3n(n2)CCCCC3c2ccc(F)cc2)ccc1-c1nc(C)no1` (stereo not drawn) [Example 60, 9-(4-fluorophenyl)-N-(3-methoxy-4-(3-methyl-1,2,4-oxadiazol-5-yl)phenyl)-6,7,8,9-tetrahydro-5H-[1,2,4]triazolo[1,5-a]azepin-2-amine], 100 to 1000 nM.
